Test results reported in ChEMBL document CHEMBL3352687, “Synthesis of N-glycan units for assessment of substrate structural requirements of N-acetylglucosaminyltransferase III” (Bioorg Med Chem Lett, 2014).
Calls of active or inactive are those of the source. The calls are words filed in the database; no cut-off is given here.

Test: Competitive inhibition of human N-terminally His6-tagged N-acetylglucosaminyltransferase 3 expressed in HEK293T cells assessed as GN-GnGnbi-PAs molar ratio level at 100 to 500 uM incubated for 4 hrs using GnGnbi-PA acceptor substrate and UDP-GlcNAc donor substrate by reverse phase HPLC method
Conditions: HEK-293T

| inhibition | Compound |
| --- | --- |
| inactive | CO[C@H]1O[C@H](CO[C@H]2O[C@H](CO)[C@@H](O)[C@H](O)[C@@H]2O)[C@@H](O)[C@H](O[C@H]2O[C@H](CO)[C@@H](O)[C@H](O)[C@@H]2O)[C@@H]1O |
| Active | CO[C@H]1O[C@H](CO[C@H]2O[C@H](CO)[C@@H](O)[C@H](O)[C@@H]2O[C@@H]2O[C@H](CO)[C@@H](O)[C@H](O)[C@H]2NC(C)=O)[C@@H](O)[C@H](O[C@H]2O[C@H](CO)[C@@H](O)[C@H](O)[C@@H]2O[C@@H]2O[C@H](CO)[C@@H](O)[C@H](O)[C@H]2NC(C)=O)[C@@H]1O |
| inactive | CO[C@H]1O[C@H](CO[C@H]2O[C@H](CO)[C@@H](O)[C@H](O)[C@@H]2O)[C@@H](O[C@@H]2O[C@H](CO)[C@@H](O)[C@H](O)[C@H]2NC(C)=O)[C@H](O[C@H]2O[C@H](CO)[C@@H](O)[C@H](O)[C@@H]2O)[C@@H]1O |
| Active | CO[C@H]1O[C@H](CO[C@H]2O[C@H](CO)[C@@H](O)[C@H](O)[C@@H]2O[C@@H]2O[C@H](CO)[C@@H](O)[C@H](O)[C@H]2NC(C)=O)[C@@H](O[C@@H]2O[C@H](CO)[C@@H](O)[C@H](O)[C@H]2NC(C)=O)[C@H](O[C@H]2O[C@H](CO)[C@@H](O)[C@H](O)[C@@H]2O[C@@H]2O[C@H](CO)[C@@H](O)[C@H](O)[C@H]2NC(C)=O)[C@@H]1O |
